Data published in patent publication US12486266B2, “Crystalline form of JAK inhibitor and application thereof” (Zhuhai United Laboratories CO., LTD., priority 2020, dated 2025).
Where two headings read alike, the source gives them in different places. Marks after values point to notes of the source that are not given here.

What was measured:
[1] = tested on: collagen induced arthritis (CIA) in mice; conditions: for Average clinical score / Incidence rate: dosing from day 28
[2] = tested on: adjuvant induced arthritis (AIA) rat model
[3] = day 31, 0.3 mg/kg p.o. qd, listed as Dex.
[4] = day 13, 0.3 mg/kg p.o. qd from day 13
[5] = day 15, 0.3 mg/kg p.o. qd from day 13
[6] = day 17, 0.3 mg/kg p.o. qd from day 13
[7] = day 20, 0.3 mg/kg p.o. qd from day 13
[8] = day 22, 0.3 mg/kg p.o. qd from day 13
[9] = day 24, 0.3 mg/kg p.o. qd from day 13
[10] = day 27, 0.3 mg/kg p.o. qd from day 13
[11] = day 27, 0.3 mg/kg p.o. qd from day 13, listed as Dexamethasone acetate
[12] = right hind foot, day 27, 0.3 mg/kg p.o. qd
[13] = day 15, 30 mg/kg p.o. bid from day 13
[14] = day 17, 30 mg/kg p.o. bid from day 13
[15] = day 20, 30 mg/kg p.o. bid from day 13
[16] = day 22, 30 mg/kg p.o. bid from day 13
[17] = day 24, 30 mg/kg p.o. bid from day 13

Compound: C[C@@H]1C[C@H]2[C@@H]3CCC4=CC(=O)C=C[C@]4(C)[C@@]3(F)[C@@H](O)C[C@]2(C)[C@@]1(O)C(=O)CO [Dexamethasone]
- Inhibition rate (clinical score AUC vs control group) ([1]; 0.3 mg/kg p.o. qd 14 days): 97.3%
- Inhibition rate (clinical score AUC vs control group) ([1]; 0.3 mg/kg p.o. qd 14 days, listed as Dex.): 97.3%
- AUC ± SEM (area under incidence/clinical score curve) ([1]; administration period, 0.3 mg/kg p.o. qd 14 days): 1.38 ± 0.81
- Average clinical score ([1]; day 21, 0.3 mg/kg p.o. qd): 0.00 ± 0.00
- Incidence rate ([1]; day 21, 0.3 mg/kg p.o. qd): 0%
- Average clinical score ([1]; day 24, 0.3 mg/kg p.o. qd): 0.00 ± 0.00
- Incidence rate ([1]; day 24, 0.3 mg/kg p.o. qd): 0%
- Average clinical score ([1]; day 27, 0.3 mg/kg p.o. qd): about 0.3
- Incidence rate ([1]; day 27, 0.3 mg/kg p.o. qd): 25%
- Average clinical score ([1]; day 27, 0.3 mg/kg p.o. qd, listed as Dex.): 0.25 ± 0.16
- Average clinical score ([1]; day 28, 0.3 mg/kg p.o. qd): 0.50 ± 0.27
- Incidence rate ([1]; day 28, 0.3 mg/kg p.o. qd): 38%
- Average clinical score ([1]; day 29, 0.3 mg/kg p.o. qd): 0.25 ± 0.16
- Incidence rate ([1]; day 29, 0.3 mg/kg p.o. qd): 25%
- Average clinical score ([1]; day 31, 0.3 mg/kg p.o. qd): 0
- Incidence rate ([1]; day 31, 0.3 mg/kg p.o. qd): 0%
- Average clinical score [1, 3]: 0.00 ± 0.00
- Incidence rate [1, 3]: 0%
- Average clinical score ([1]; day 34, 0.3 mg/kg p.o. qd): 0.00 ± 0.00
- Incidence rate ([1]; day 34, 0.3 mg/kg p.o. qd): 0%
- Average clinical score ([1]; day 36, 0.3 mg/kg p.o. qd): 0.00 ± 0.00
- Incidence rate ([1]; day 36, 0.3 mg/kg p.o. qd): 0%
- Average clinical score ([1]; day 38, 0.3 mg/kg p.o. qd): 0.00 ± 0.00
- Incidence rate ([1]; day 38, 0.3 mg/kg p.o. qd): 0%
- Average clinical score ([1]; day 41, 0.3 mg/kg p.o. qd): 0.00 ± 0.00
- Incidence rate ([1]; day 41, 0.3 mg/kg p.o. qd): 0%
- Inhibition rate (total pathological score vs solvent control) ([2]; 0.3 mg/kg p.o. qd): 72.5%
- Clinical score (mean) [2, 4]: 6.0
- Foot volume (mean) [2, 4]: 1.9 mL
- Clinical score (mean) [2, 5]: 5.3*
- Foot volume (mean) [2, 5]: 1.7**** mL
- Clinical score (mean) [2, 6]: 4.1****
- Foot volume (mean) [2, 6]: 1.4**** mL
- Clinical score (mean) [2, 7]: 3.4****
- Foot volume (mean) [2, 7]: 1.3**** mL
- Clinical score (mean) [2, 8]: 3.1****
- Foot volume (mean) [2, 8]: 1.3**** mL
- Clinical score (mean) [2, 9]: 3.1****
- Foot volume (mean) [2, 9]: 1.2**** mL
- Clinical score (mean) [2, 10]: 2.7
- Foot volume (mean) [2, 10]: 1.21 mL
- Clinical score (mean) [2, 11]: 2.9****
- Foot volume (mean) [2, 11]: 1.2**** mL
- Pathological score: Bone resorption [2, 12]: 0.6 ± 0.2
- Pathological score: Cartilage injury [2, 12]: 0.6 ± 0.2
- Pathological score: Inflammatory cell infiltration [2, 12]: 1.8 ± 0.2
- Pathological score: Pannus formation [2, 12]: 1.4 ± 0.3
- Pathological score: Total score [2, 12]: 4.4±0.8
- Pathological score: Total score ([2]; right hind foot, day 27, 0.3 mg/kg p.o. qd, listed as Dexamethasone acetate): 4.4 ± 0.8

Compound: O=C(Nc1nc2cccc(-c3ccc(CN4CCS(=O)(=O)CC4)cc3)n2n1)C1CC1 [Filgotinib]
- Incidence rate ([1]; day 21, 15 mg/kg p.o. bid): 0%
- Incidence rate ([1]; day 24, 15 mg/kg p.o. bid): 0%
- Incidence rate ([1]; day 27, 15 mg/kg p.o. bid): 25%
- Incidence rate ([1]; day 29, 15 mg/kg p.o. bid): 50%
- Incidence rate ([1]; day 31, 15 mg/kg p.o. bid): 75%
- Incidence rate ([1]; day 34, 15 mg/kg p.o. bid): 88%
- Incidence rate ([1]; day 36, 15 mg/kg p.o. bid): 88%
- Incidence rate ([1]; day 38, 15 mg/kg p.o. bid): 88%
- Incidence rate ([1]; day 41, 15 mg/kg p.o. bid): 100%
- Clinical score (mean) [2, 13]: 6.6
- Foot volume (mean) [2, 13]: 2.2 mL
- Clinical score (mean) [2, 14]: 6.3
- Foot volume (mean) [2, 14]: 2.0** mL
- Clinical score (mean) [2, 15]: 5.8**
- Foot volume (mean) [2, 15]: 1.9**** mL
- Clinical score (mean) [2, 16]: 5.5***
- Foot volume (mean) [2, 16]: 2.0**** mL
- Clinical score (mean) [2, 17]: 5.4****
- Foot volume (mean) [2, 17]: 2.0**** mL
- Foot volume (mean) ([2]; day 27, 30 mg/kg p.o. bid from day 13): 1.9**** mL
- Pathological score: Bone resorption ([2]; right hind foot, day 27, 30 mg/kg p.o. bid): 3.6 ± 0.2
